Values quoted from earlier work in US20220215898A1, “METHODS AND […] FOR GENERATING A VIRTUAL MODEL OF XENOBIOTIC EXPOSURE USING TRANS[…] OF LIQUID BIOPSY SAMPLES” (Certara USA, Inc., priority 2019, published 2022).

Details: compound files selected from the Simcyp library

Cc1nnc2n1-c1ccc(Cl)cc1C(c1ccccc1)=NC2 [alprazolam]
clearance category of CYP3A substrate: low clearance

Cc1ncc2n1-c1ccc(Cl)cc1C(c1ccccc1F)=NC2 [midazolam]
clearance category of CYP3A substrate: medium clearance
